≈ marks a conversion by molar mass, not a printed value.
Legend:
[1] = tested on: STA 29213 (Staphylococcus aureus (ATCC29213)); test: Microtitre plate assay, IC90 determination; type: cell-based; conditions: for IC90 (μg/ml) STA 29213: Staphylococcus aureus (ATCC29213); for IC90: Staphylococcus aureus, ATCC29213, Staphylococcus aureus (ATCC29213), read-out: IC90 (μg/ml) STA 29213
Method: (§1) The bacteria used in this study were grown overnight in flasks containing 100 ml Mueller-Hinton Broth (Becton Dickinson—cat. no. 275730) in sterile de-ionized water, with shaking, at 37° C. Stocks (0.5 ml/tube) were stored at −70° C. until use. Bacteria titrations were performed in microtiter plates and colony forming units (CFUs) were determined. In general, an inoculum level of approximately 100 CFUs was used for susceptibility testing.
(§2) Flat-bottom, sterile 96-well plastic microtiter plates were filled with 180 μl of sterile deionized water, supplemented with 0.25% BSA. Subsequently, stock solutions (7.8× final test concentration) of compounds were added in 45 μl volumes in column 2. Serial five-fold dilutions (45 μl in 180 μl) were made directly in the microtiter plates from column 2 to reach column 11. Untreated control samples with (column 1) and without (column 12) inoculum were included in each microtiter plate. Depending on the bacteria type, approximately 10 to 60 CFU per well of bacteria inoculum (100 TCID50), in a volume of 100 μl in 2.8× Mueller-Hinton broth medium, was added to the rows A to H, except column 12. The same volume of broth medium without inoculum was added to column 12 in row A to H. The cultures were incubated at 37° C. for 24 hours under a normal atmosphere (incubator with open air valve and continuous ventilation). At the end of incubation, one day after inoculation, the bacterial growth was quantitated fluorometrically. Therefore resazurin (0.6 mg/ml) was added in a volume of 20 μl to all wells 3 hours after inoculation, and the plates were re-incubated overnight. A change in colour from blue to pink indicated the growth of bacteria. The fluorescence was read in a computer-controlled fluorometer (Cytofluor Biosearch) at an excitation wavelength of 530 nm and an emission wavelength of 590 nm. The % growth inhibition achieved by the compounds was calculated according to standard methods. The IC90 (expressed in μg/ml) was defined as the 90% inhibitory concentration for bacterial growth.

[2] = tested on: SPN 6305 (Streptococcus pneumoniae (ATCC6305)); test: Microtitre plate assay, IC90 determination; type: cell-based; conditions: for IC90 (μg/ml) SPN 6305: Streptococcus pneumoniae (ATCC6305); for IC90: Streptococcus pneumoniae, ATCC6305, Streptococcus pneumoniae (ATCC6305), read-out: IC90 (μg/ml) SPN 6305
Method: as §1, §2

Compound	IC90 (μg/ml) STA 29213 [1] [µg/mL]	IC90 (μg/ml) SPN 6305 [2] [µg/mL]	IC90 [1] [µg/mL]	IC90 [2] [µg/mL]
COc1nc2ccc(Br)cc2cc1C(c1ccccc1)C(O)(CCCCN(C)C)CCc1ccco1 (single isomer, unassigned) [Compound 129]	6.19 (≈ 11.2 µM)	1.74 (≈ 3.15 µM)		
COc1nc2ccc(Br)cc2cc1C(c1ccccc1)C(O)(CCCCN(C)C)CCc1ccco1 (single isomer, unassigned) [Compound 130]	8.74 (≈ 15.8 µM)	6.19 (≈ 11.2 µM)		
COc1nc2ccc(Br)cc2cc1C(c1ccccc1)C(O)(CCCCN1CCN(C)CC1)CCc1cccc2ccccc12 (single isomer, unassigned) [Compound 143]	10.57 (≈ 15.9 µM)	10.57 (≈ 15.9 µM)		
COc1nc2ccc(Br)cc2cc1C(c1ccccc1)C(O)(CCCCN1CCCCC1)CCCc1ccccc1 (single isomer, unassigned) [Compound 146]	9.76 (≈ 15.9 µM)	5.49 (≈ 8.92 µM)		
COc1nc2ccc(Br)cc2cc1C(c1ccccc1)C(O)(CCCCc1ccccc1)CCCCN(C)C (single isomer, unassigned) [Compound 147]	9.34 (≈ 15.8 µM)	9.34 (≈ 15.8 µM)		
COc1nc2ccc(Br)cc2cc1C(c1ccccc1)C(O)(CCCCc1ccccc1)CCCCN1CCCCC1 (single isomer, unassigned) [Compound 148]	1.99 (≈ 3.16 µM)	2.23 (≈ 3.54 µM)		
COc1nc2ccc(Br)cc2cc1C(c1ccccc1)C(O)(CCCCc1ccccc1)CCCCN1CCCCC1 (single isomer, unassigned) [Compound 149]	1.99 (≈ 3.16 µM)	2.23 (≈ 3.54 µM)		
CNCCCCCC(O)(c1ccccc1)C(c1ccccc1)c1cc2cc(C)ccc2nc1OC (single isomer, unassigned) [Compound 151]	1.7 (≈ 3.63 µM)	2.12 (≈ 4.52 µM)		
COc1nc2ccc(C)cc2cc1C(c1ccccc1)C(O)(CCCCCN(C)C)c1ccccc1 (single isomer, unassigned) [Compound 153]	3.8 (≈ 7.87 µM)	7.65 (≈ 15.8 µM)		
COc1nc2ccc(Br)cc2cc1C(c1ccccc1)C(O)(CCCCCN(C)C)c1ccccc1 (single isomer, unassigned) [Compound 155]	1.7 (≈ 3.1 µM)	1.7 (≈ 3.1 µM)		
COc1ccc(C(c2cc3cc(Br)ccc3nc2OC)C(O)(CCCCN(C)C)c2ccc3ccccc3c2)cc1 (single isomer, unassigned) [Compound 157]	2.44 (≈ 3.98 µM)	2.74 (≈ 4.47 µM)		
COc1nc2ccccc2cc1C(c1cccc(Br)c1)C(O)(CCCCN(C)C)c1ccc2ccccc2c1 (single isomer, unassigned) [Compound 160]	1.85 (≈ 3.17 µM)	2.07 (≈ 3.55 µM)		
COc1nc2ccccc2cc1C(c1cccc(Br)c1)C(O)(CCCCN(C)C)c1ccc2ccccc2c1 (single isomer, unassigned) [Compound 161]	1.85 (≈ 3.17 µM)	2.07 (≈ 3.55 µM)		
COc1nc2ccccc2cc1C(c1cccc(Br)c1)C(O)(CCCCN(C)C)c1ccc2ccccc2c1 (single isomer, unassigned) [Compound 162]	1.85 (≈ 3.17 µM)	2.07 (≈ 3.55 µM)		
COc1nc2ccc(Br)cc2cc1C(c1cccc(Cl)c1)C(O)(CCCCN(C)C)c1ccc2ccccc2c1 (single isomer, unassigned) [Compound 163]	1 (≈ 1.62 µM)	0.31 (≈ 0.502 µM)		
COc1nc2ccc(Br)cc2cc1C(c1ccc(Cl)cc1)C(O)(CCCCN(C)C)c1ccc2ccccc2c1 (single isomer, unassigned) [Compound 164]	1.4 (≈ 2.27 µM)	0.31 (≈ 0.502 µM)		
COc1ccc(C(c2cc3cc(Br)ccc3nc2OC)C(O)(CCCCN2CCCCC2)c2ccccc2)cc1 (single isomer, unassigned) [Compound 165]	3.81 (≈ 6.31 µM)	1.91 (≈ 3.16 µM)		
COc1ccc(C(c2cc3cc(Br)ccc3nc2OC)C(O)(CCCCN2CCCCC2)c2ccccc2)cc1 (single isomer, unassigned) [Compound 166]	1.91 (≈ 3.16 µM)	1.91 (≈ 3.16 µM)		

Compound	IC90 (μg/ml) STA 29213 [1] [µg/mL]	IC90 (μg/ml) SPN 6305 [2] [µg/mL]	IC90 [1] [µg/mL]	IC90 [2] [µg/mL]
COc1ccc(C(c2cc3cc(Br)ccc3nc2OC)C(O)(CCCCN2CCCCC2)c2ccc(C)cc2)cc1 (single isomer, unassigned) [Compound 167]	1.95 (≈ 3.16 µM)	2.19 (≈ 3.55 µM)		
COc1ccc(C(c2cc3cc(Br)ccc3nc2OC)C(O)(CCCCN2CCCCC2)c2ccc(OC)cc2)cc1 (single isomer, unassigned) [Compound 169]	4 (≈ 6.31 µM)	2.52 (≈ 3.98 µM)		
COc1nc2ccc(Br)cc2cc1C(c1ccc(Cl)cc1)C(O)(CCCCN1CCCCC1)c1ccc(C)cc1 (single isomer, unassigned) [Compound 171]	22.07 (≈ 35.5 µM)	4.94 (≈ 7.94 µM)		
COc1nc2ccc(Br)cc2cc1C(c1ccc(Cl)c(Cl)c1)C(O)(CCCCN1CCCCC1)c1ccccc1 (single isomer, unassigned) [Compound 172]	2.03 (≈ 3.16 µM)	2.28 (≈ 3.55 µM)		
COc1nc2ccc(Br)cc2cc1C(c1ccc(Cl)cc1)C(O)(CCCCN1CCN(C)CC1)CCC1CCCCC1 (single isomer, unassigned) [Compound 174]	10.41 (≈ 15.8 µM)	8.27 (≈ 12.6 µM)		
COc1nc2ccc(Br)cc2cc1C(c1ccccc1)C(O)(CCCCN(C)C)c1ccc2c(c1)OCO2 (stereo not shown) [Compound 10]			11.5 (≈ 19.9 µM)	10.3 (≈ 17.8 µM)
COc1nc2ccc(Br)cc2cc1C(c1ccccc1)C(O)(CCCCN(C)C)c1cc(F)cc(F)c1 (stereo not shown) [Compound 12]	45.2 (≈ 79.4 µM)	11.4 (≈ 20 µM)		
COc1nc2ccc(Br)cc2cc1C(c1ccccc1)C(O)(CCCCN(C)C)c1cc(F)ccc1F (stereo not shown) [Compound 14]		57.0 (≈ 100 µM)	14.3 (≈ 25.1 µM)	
COc1nc2ccc(Br)cc2cc1C(c1ccccc1)C(O)(CCCCN(C)C)c1cccnc1 (stereo not shown) [Compound 16]	8.5 (≈ 15.9 µM)	8.5 (≈ 15.9 µM)		
COc1nc2ccc(Br)cc2cc1C(c1ccccc1)C(O)(CCCCCN(C)C)c1ccc2ccccc2c1 (stereo not shown) [Compound 58]	4.2 (≈ 7.03 µM)	1.9 (≈ 3.18 µM)		
COc1nc2ccccc2cc1C(c1ccc(Br)cc1)C(O)(CCCCN(C)C)c1ccc2ccccc2c1 (stereo not shown) [Compound 63]			1.85 (≈ 3.17 µM)	2.32 (≈ 3.98 µM)
COc1nc2ccccc2cc1C(c1ccc(Br)cc1)C(O)(CCCCN(C)C)c1ccc2ccccc2c1 (stereo not shown) [Compound 65]	1.85 (≈ 3.17 µM)	2.32 (≈ 3.98 µM)		
COc1nc2ccccc2cc1C(c1ccc(Br)cc1)C(O)(CCCCN(C)C)c1ccc2ccccc2c1 (stereo not shown) [Compound 66]	1.85 (≈ 3.17 µM)	1.85 (≈ 3.17 µM)		
COc1nc2ccccc2cc1C(c1ccc(-c2ccccc2)cc1)C(O)(CCCCN(C)C)c1ccc2ccccc2c1 (stereo not shown) [Compound 175]	1.84 (≈ 3.17 µM)	2.06 (≈ 3.55 µM)		
COc1nc2ccccc2cc1C(c1ccc(-c2ccccc2)cc1)C(O)(CCCCN(C)C)c1ccc2ccccc2c1 (stereo not shown) [Compound 176]	1.84 (≈ 3.17 µM)	2.06 (≈ 3.55 µM)		
CN(C)CCCCC(O)(c1ccc2ccccc2c1)C(c1ccccc1)c1cc2cc(Br)ccc2nc1N1CCOCC1 (stereo not shown) [Compound 177]	4.52 (≈ 7.08 µM)	4.52 (≈ 7.08 µM)		
CN(C)CCCCC(O)(c1ccc2ccccc2c1)C(c1ccccc1)c1cc2cc(Br)ccc2nc1N1CCOCC1 (stereo not shown) [Compound 178]	2.02 (≈ 3.16 µM)			2.27 (≈ 3.55 µM)
